Test results from US10981932B2, “Macrocyclic indole derivatives” (Bayer Aktiengesellschaft, priority 2016, dated 2021).
Where a name gives a salt, the structure may show the parent alone. Read-outs that look alike come from different tables or passages of the source.

What was measured:
OPM2 = test: Anti-proliferative effect (CellTiter-Glo, 72 h), OPM2; type: cell-based; conditions: OPM2 cells, median, read-out: IC50 antiproliferation assay OPM2 [M] (median)
In short: (§1)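 CTG luminescence read-out after 72 h compound exposure, 37 °C, humidified. Time-zero reference plate read at plating.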

MV-4-11 = test: Anti-proliferative effect (CellTiter-Glo, 72 h), MV-4-11; type: cell-based; conditions: MV-4-11 cells, median, read-out: IC50 antiproliferation assay MV-4-11 [M] (median)
In short: as §1

Row | IC50 (MV-4-11; Homo sapiens, MV4-11, 72 h) | Compound | IC50 (OPM2; Homo sapiens, OPM-2, 72 h) | IC50 (OPM2) | other results
1 | – | Cc1c2c(nn1C)COCCCCn1c(C(=O)O)c(CCCOc3cccc4ccccc34)c3cccc-2c31 (racemic) [Example 1-36, (rac)-2,3-dimethyl-7-[3-(naphthalen-1-yloxy)propyl]-2,10,11,12,13,15-hexahydropyrazolo[4′,3′:9,10][1,6]oxazacycloundecino[8,7,6-hi]indole-8-carboxylic Acid] | 1.01e-05 M | – | –
2 | – | Cc1nn(C)c2c1-c1cccc3c(CCCOc4cccc5ccccc45)c(C(=O)O)n(c13)CCCCOCC2 (racemic) [Example 017, (rac)-1,3-dimethyl-7-[3-(1-naphthyloxy)propyl]-10,11,12,13,15,16-hexahydro-1H-pyrazolo[4′,3′:9,10][1,6]oxazacyclododecino[8,7,6-hi]indole-8-carboxylic Acid] | 2.78e-05 M | > 3.3e-05 M | –
3 | – | CC(C)c1c2c(nn1C)CN(C)CCCn1c(C(=O)O)c(CCCOc3cccc4ccccc34)c3cccc-2c31 (racemic) [Example 113, (rac)-7,10-dimethyl-1-[3-(naphthalen-1-yloxy)propyl]-11-(propan-2-yl)-4,5,6,7,8,10-hexahydropyrazolo[3′,4′:7,8][1,5]diazecino[9,10,1-hi]indole-2-carboxylic Acid] | 1.42e-05 M | – | –
4 | – | CCc1c2c(nn1C)CN(C)CCCn1c(C(=O)O)c(CCCOc3cccc4ccccc34)c3cccc-2c31 (racemic) [Example 141, (rac)-11-ethyl-7,10-dimethyl-1-[3-(1-naphthyloxy)propyl]-4,5,6,7,8,10-hexahydropyrazolo[3′,4′:7,8][1,5]diazecino[9,10,1-hi]indole-2-carboxylic Acid] | 9.12e-06 M | – | –
5 | – | CCc1c2c(nn1C)CN(C)CCCn1c(C(=O)O)c(CCCOc3cccc4ccccc34)c3ccc(C)c-2c31 (racemic) [Example 144, (rac)-11-ethyl-7,10,12-trimethyl-1-[3-(1-naphthyloxy)propyl]-4,5,6,7,8,10-hexahydropyrazolo[3′,4′:7,8][1,5]diazecino[9,10,1-hi]indole-2-carboxylic Acid] | 5.52e-06 M | – | –
6 | – | CCc1c2c(nn1C)COCCCCn1c(C(=O)O)c(CCCOc3cccc4ccccc34)c3ccc(C)c-2c31 (racemic) [Example 153, (rac)-3-Ethyl-2,4-dimethyl-7-[3-(1-naphthyloxy)propyl]-2,10,11,12,13,15-hexahydropyrazolo[4′,3′:9,10][1,6]oxazacycloundecino[8,7,6-hi]indole-8-carboxylic Acid] | 8.4e-06 M | – | –
7 | – | CC(C)OCc1nn(C)c2c1-c1cccc3c(CCCOc4cccc5ccccc45)c(C(=O)O)n(c13)CCCCN(C)C2 (single isomer, unassigned) [Example 1-74, 1,14-dimethyl-7-[3-(naphthalen-1-yloxy)propyl]-3-[(propan-2-yloxy)methyl]-10,11,12,13,14,15-hexahydro-1H-pyrazolo[3′,4′:8,9][1,6]diazacycloundecino[10,11,1-hi]indole-8-carboxylic Acid] | 1.6e-05 M | – | –
8 | – | Cn1nc(COc2ccc(N3CCN(C(=O)C4CC4)CC3)cc2)c2c1COCCCCn1c(C(=O)O)c(CCCOc3cccc4ccccc34)c3cccc-2c31 (single isomer, unassigned; enantiomer 1) [Example 1-22, 3-({4-[4-(cyclopropylcarbonyl)piperazin-1-yl]phenoxy}methyl)-1-methyl-7-[3-(naphthalen-1-yloxy)propyl]-1,10,11,12,13,15-hexahydropyrazolo[4′,3′:9,10][1,6]oxazacycloundecino[8,7,6-hi]indole-8-carboxylic Acid (Enantiomer 1)] | – | 2.56e-06 M | –
9 | 2.61e-06 M | Cc1nn(C)c2c1-c1cccc3c(CCCOc4cccc5ccccc45)c(C(=O)O)n(c13)CCCN(C)C2 (single isomer, unassigned; enantiomer 1) [Example 1-31, 7,9,11-trimethyl-1-[3-(naphthalen-1-yloxy)propyl]-4,5,6,7,8,9-hexahydropyrazolo[3′,4′:7,8][1,5]diazecino[9,10,1-hi]indole-2-carboxylic Acid-N-ethylethanamine Salt (Enantiomer 1)] | – | 1.05e-05 M | –
10 | 4.02e-06 M | Cc1c2c(nn1C)COCCCCn1c(C(=O)O)c(CCCOc3cccc4ccccc34)c3cccc-2c31 (single isomer, unassigned; enantiomer 1) [Example 1-37, (+)-2,3-dimethyl-7-[3-(naphthalen-1-yloxy)propyl]-2,10,11,12,13,15-hexahydropyrazolo[4′,3′:9,10][1,6]oxazacycloundecino[8,7,6-hi]indole-8-carboxylic Acid (Enantiomer 1)] | – | 6.53e-06 M | –
11 | 6.59e-06 M | CN1CCCn2c(C(=O)O)c(CCCOc3cccc4ccccc34)c3cccc(c32)-c2c(CN3CCOCC3)nn(C)c2C1 (single isomer, unassigned; enantiomer 1) [Example 1-43, (+)-7,9-dimethyl-11-(morpholin-4-ylmethyl)-1-[3-(naphthalen-1-yloxy)propyl]-4,5,6,7,8,9-hexahydropyrazolo[3′,4′:7,8][1,5]diazecino[9,10,1-hi]indole-2-carboxylic Acid (Enantiomer 1)] | 1.81e-05 M | – | –
12 | 7.2e-07 M | CN1CCCn2c(C(=O)O)c(CCCOc3cccc4ccccc34)c3cccc(c32)-c2c(COc3ccc(N4CCN(S(C)(=O)=O)CC4)cc3)nn(C)c2C1 (single isomer, unassigned; enantiomer 1) [Example 1-46, (+)-7,9-dimethyl-11-({4-[4-(methylsulfonyl)piperazin-1-yl]phenoxy}methyl)-1-[3-(naphthalen-1-yloxy)propyl]-4,5,6,7,8,9-hexahydropyrazolo[3′,4′:7,8][1,5]diazecino[9,10,1-hi]indole-2-carboxylic Acid (Enantiomer 1)] | – | 1.52e-06 M | –
13 | – | Cc1nn(C)c2c1-c1cccc3c(CCCOc4cccc5cc(F)ccc45)c(C(=O)O)n(c13)CCCOC2 (single isomer, unassigned; enantiomer 1) [Example 047, 1-{3-[(6-fluoronaphthalen-1-yl)oxy]propyl}-9,11-dimethyl-5,6,8,9-tetrahydro-4H-pyrazolo[4′,3′:8,9][1,5]oxazecino[7,6,5-hi]indole-2-carboxylic acid-N-ethylethanamine Salt (Enantiomer 1)] | – | – | IC50 (MV-4-11): 5.38e-06 M
14 | – | COCCn1nc2c(c1CN1CCOCC1)-c1cccc3c(CCCOc4cccc5ccccc45)c(C(=O)O)n(c13)CCCN(C)C2 (single isomer, unassigned; enantiomer 1) [Example 057, 10-(2-methoxyethyl)-7-methyl-11-(morpholin-4-ylmethyl)-1-[3-(naphthalen-1-yloxy)propyl]-4,5,6,7,8,10-hexahydropyrazolo[3′,4′:7,8][1,5]diazecino[9,10,1-hi]indole-2-carboxylic Acid (Enantiomer 1)] | > 3.3e-05 M | – | –
15 | – | Cc1c2c(nn1CCN1CCOCC1)CN(C)CCCn1c(C(=O)O)c(CCCOc3cccc4ccccc34)c3cccc-2c31 (single isomer, unassigned; enantiomer 1) [Example 060, 7,11-dimethyl-10-[2-(morpholin-4-yl)ethyl]-1-[3-(naphthalen-1-yloxy)propyl]-4,5,6,7,8,10-hexahydropyrazolo[3′,4′:7,8][1,5]diazecino[9,10,1-hi]indole-2-carboxylic Acid (Enantiomer 1)] | 1.27e-05 M | – | –
16 | 4.44e-06 M | COCc1nn(C)c2c1-c1cccc3c(CCCOc4cccc5ccccc45)c(C(=O)O)n(c13)CCCN(C)C2 (single isomer, unassigned; enantiomer 2) [Example 1-104, 11-(methoxymethyl)-7,9-dimethyl-1-[3-(1-naphthyloxy)propyl]-4,5,6,7,8,9-hexahydropyrazolo[3′,4′:7,8][1,5]diazecino[9,10,1-hi]indole-2-carboxylic Acid (Enantiomer 2)] | – | – | –
17 | 2.29e-06 M | Cc1nn(C)c2c1-c1cccc3c(CCCOc4ccc(F)c5ccccc45)c(C(=O)O)n(c13)CCCCOC2 (single isomer, unassigned; enantiomer 2) [Example 023, 7-{3-[(4-fluoronaphthalen-1-yl)oxy]propyl}-1,3-dimethyl-1,10,11,12,13,15-hexahydropyrazolo[4′3′:9,10][1,6]oxazacycloundecino[8,7,6-hi]indole-8-carboxylic acid-N-ethylethanamine Salt (Enantiomer 2)] | 6.79e-06 M | – | –
18 | 8.02e-06 M | Cc1c2c(nn1CCN1CCOCC1)CN(C)CCCn1c(C(=O)O)c(CCCOc3cccc4ccccc34)c3cccc-2c31 (single isomer, unassigned; enantiomer 2) [Example 061, 7,11-dimethyl-10-[2-(morpholin-4-yl)ethyl]-1-[3-(naphthalen-1-yloxy)propyl]-4,5,6,7,8,10-hexahydropyrazolo[3′,4′:7,8][1,5]diazecino[9,10,1-hi]indole-2-carboxylic Acid (Enantiomer 2)] | – | 2.51e-05 M | –
19 | 7.04e-06 M | Cc1ccc2c(CCCOc3cccc4ccccc34)c(C(=O)O)n3c2c1-c1c(nn(C)c1C)CN(C)CCC3 (single isomer, unassigned; enantiomer 2) [Example 074, 7,10,11,12-tetramethyl-1-[3-(naphthalen-1-yloxy)propyl]-4,5,6,7,8,10-hexahydropyrazolo[3′,4′:7,8][1,5]diazecino[9,10,1-hi]indole-2-carboxylic Acid (Enantiomer 2)] | – | – | –
